Measured values taken from patent US11708422B2, “Mitigation of lung injury” (The Trustees Of The University Of Pennsylvania, priority 2016, dated 2023).
Entries after “also recorded” stand apart in the source; their conditions may differ.

Columns and labels:
RAEC monolayers [1] = assay: Stretch-associated permeability of RAEC monolayers (cyclic stretch); assay type: cell-based, rat; details: 10 min of stretch; for stretch-associated permeability: pretreated, vs vehicle controls
Protocol: As evidence that NRG1, HER2, and HER3 regulate stretch-associated increases in permeability, RAEC monolayers (N≥3-7/group) were exposed to 10 min of stretch, and compared vehicle controls (VC, black bars, FIG. 16—Appendix I) with those pretreated microRNA miR15-b to reduce NRG1 expression (FIG. 7, APPROACH—Appendix I), TAPI2 to inhibit ADAM17 and NRG1 cleavage (diagonal striped bars, FIG. 16—Appendix I), HER3 mAb to inhibit NRG1 binding (dark gray bars), or AG825 (white bars) to inhibit HER2 activation.
each outcome measure, at each timepoint), at 0, 25, 37% ASA. To assess the effects of a longer stretch duration, RAEC monolayers from additional isolations (n=7 rats) were also subjected to cyclic stretch ASA of 0% (control) or 25% for 6 hrs. […] In RAECs, results were compared to stretched and unstretched monolayers with separate treatments to evaluate downstream signaling pathway inhibition of ERK (U0126), PI3K (Wortmannin), Rac1 (EHT-1864 and ERK 1/2 siRNA [97] and LIMK1 (BMS4). Additional groups had NRG1 expression decreased by overexpressing miRNA-15b (negative regulator of NRG1), using scrambled oligonucleotide as a negative control. As a validation of or hierarchical platform, TJ expression, phosphorylation and arrangement results in PCLS were compared with RAECs. In all groups, monolayers were assigned to one of four quantitative outcome evaluations: alveolar paracellular permeability via BODIPY-oubain and streptavidin-FITC methods (see INNOVATION—Appendix I), TJ and actin arrangement by fixing RAECs and PCLSs for qualitative immunofluorescence, total and phosphorylated TJ content via Western blot, or ZO-1-bound TJ proteins by isolating protein for co-IP using ZO-1 as bait, followed by Western blotting for occludin, claudins 4, 7, and 18, and F-actin in the ZO-1 protein fraction.

[2] = tested on: mice treated with bleomycin to induce lung injury; details: relative to untreated mice; cited from earlier work
RAEC monolayers [3] = assay: TJ protein dissociation from ZO-1 (co-IP with ZO-1 as bait) in stretched RAEC monolayers; assay type: cell-based, rat; details: RAECs, 10 min of cyclic stretch
Description: In the extracellular domain, the TJ is composed of claudins and occludin bound to TJ proteins of neighboring cells. In the intracellular domain, the claudins and occludin bind to actin via ZO-1. […] The present study tests the hypothesis that TJ dissociation between the ZO1 and the claudins and occludin is the primary causal mechanism for HER2-HER3 mediated barrier disruption. As preliminary evidence, RAEC monolayers (N=4) that were pretreated with NRG1 cleavage inhibitor TAPI-2, HER2 inhibitor AG825, or vehicle (VC) were stretched. […] The present study also confirmed stretch-induced TJ protein dissociation in lung slices.
each outcome measure, at each timepoint), at 0, 25, 37% ASA. To assess the effects of a longer stretch duration, RAEC monolayers from additional isolations (n=7 rats) were also subjected to cyclic stretch ASA of 0% (control) or 25% for 6 hrs. For every isolation, functional relationships will be confirmed in unstretched and stretched control groups treated with AG825 (HER2 inhibitor), anti-HER3ab (HER3 inhibitor), and tempol or tiron (superoxide scavenger), and compared with unstretched RAEC and PCLS treated with PMA to activate HER3 via NRG1 shedding as a positive control. In RAECs, results were compared to stretched and unstretched monolayers with separate treatments to evaluate downstream signaling pathway inhibition of ERK (U0126), PI3K (Wortmannin), Rac1 (EHT-1864 and ERK 1/2 siRNA [97] and LIMK1 (BMS4). Additional groups had NRG1 expression decreased by overexpressing miRNA-15b (negative regulator of NRG1), using scrambled oligonucleotide as a negative control. As a validation of or hierarchical platform, TJ expression, phosphorylation and arrangement results in PCLS were compared with RAECs. In all groups, monolayers were assigned to one of four quantitative outcome evaluations: alveolar paracellular permeability via BODIPY-oubain and streptavidin-FITC methods (see INNOVATION—Appendix I), TJ and actin arrangement by fixing RAECs and PCLSs for qualitative immunofluorescence, total and phosphorylated TJ content via Western blot, or ZO-1-bound TJ proteins by isolating protein for co-IP using ZO-1 as bait, followed by Western blotting for occludin, claudins 4, 7, and 18, and F-actin in the ZO-1 protein fraction.

rodent model of VILI = assay: In vivo rodent model of VILI (large tidal volume mechanical ventilation); parameters: species or system rat; details: rats, Vt=25 ml/kg for 4 hrs, PEEP=0, AG825 1.67 mg/kg/day IP, 3 days
Protocol: Ventilated rats received one of […] treatments, intratracheal TAPI2 (used in vivo to inhibit NRG1 sheddase ADAM17) or […] AG825 or intravenous trastuzumab (to inhibit HER2), or will serve as ventilated vehicle-treated controls. Treatment windows were varied from 3 days prior ventilation to concurrent application, to identify an optimal, clinically-relevant therapeutic dose and timing. Dynamic compliance will be measured every 30 min. All animals were injected with FITC-albumin prior to ventilation, and alveolar permeability assessed prior to sacrifice by quantifying fluorescence of bronchoalveolar lavage (BAL) fluid normalized to serum fluorescence. Lungs were formalin-fixed after BAL, and hematoxylin/eosin stained sections were evaluated for hyaline membrane formation, interstitial edema, margination and infiltration of neutrophils, as well as intra-alveolar and perivascular hemorrhage. Compliance, permeability, and lung histology were compared across groups.

| Structure (SMILES) | stretch-associated permeability (RAEC monolayers [1]) | alveolar protein content [2] | TJ dissociation with stretch (RAEC monolayers [3]) | levels of TJ bound to ZO-1 after stretch vs unstretched controls (RAEC monolayers [3]) | protection against VILI (rodent model of VILI) | lung compliance (rodent model of VILI; 1.67 mg/kg/day) | permeability (barrier properties) in vivo (rodent model of VILI; 1.67 mg/kg/day) | barrier properties vs. unstretched VC (RAEC monolayers [1]) |
| --- | --- | --- | --- | --- | --- | --- | --- | --- |
| CC(C)C[C@H](CC(=O)NO)C(=O)N[C@H](C(=O)N[C@@H](C)C(=O)NCCN)C(C)(C)C [TAPI2] | significantly reduced stretch-associated permeability | decreased alveolar protein content | reduces stretch-induced tight junction dissociation; also recorded: prevented | equal or greater after stretch than unstretched controls |  |  |  |  |
| COc1cc(/C=C(\C#N)C(N)=O)cc(CSc2nc3ccccc3s2)c1O [AG825] | significantly reduced stretch-associated permeability |  | reduces stretch-induced tight junction dissociation; also recorded: prevented | equal or greater after stretch than unstretched controls | dramatically protects against VILI | preserves lung compliance; also recorded: significant improvements in lung compliance | preserves barrier properties/moderates unwanted permeability; also recorded: significant improvements in lung compliance and permeability | maintained barrier properties at unstretched levels |
